Earlier results on one molecule are cited in patent publication US20160008277A1, “CO-PACKAGED DRUG PRODUCTS” (Lightlake Therapeutics Inc., priority 2014, published 2016).

The structures appear in SMILES notation.

In data set [1] the test system is newborn rats. The following applies: acute subcutaneous; cited from earlier work.
Data set [2] deals with rat. The following applies: intravenous; cited from earlier work.
Data set [3] has as its system mouse. The following applies: intravenous; cited from earlier work.

Turning to `C=CCN1CC[C@]23c4c5ccc(O)c4O[C@H]2C(=O)CC[C@@]3(O)[C@H]1C5.Cl` [naloxone hydrochloride, 17-allyl-4,5a-epoxy-3,14-dihydroxymorphinan-6-one hydrochloride], the “LD50 (95% CL)” value in data set [1] is recorded as 260 (228-296) mg/kg. For the same molecule, the results for the LD50 in data set [2] and in data set [3] were 109 ± 4 mg/kg and 150 ± 5 mg/kg, respectively.

In general, LD50 refers to the dose expected to kill half of the subjects tested.
